For data set [1], the target named is T1, porcine megalin (Sus scrofa, UniProt C0HL13). The experiment in a line: Surface plasmon resonance: competition for TC:B12 binding to chip-immobilized megalin. To be noted: for IC50: 10 µg/ml TC:B12 in 0 to 100 mM amino-acid, Biacore; for SPR signal of amino-acid alone on megalin chip: chips exposed to increasing concentrations of amino-acid, no analyte. As for the experimental part: (§1) To directly address whether supra-physiological concentrations of dibasic amino-acids (dAAs) can interfere with binding of protein ligands to megalin, we used surface plasmon resonance. Sensor chips were derivatized with porcine megalin at high density. […] After flushing, chips were incubated with 10 µg/ml of three analytes: the megalin chaperone, RAP (receptor-associated protein), as positive control (not shown), or two physiological megalin ligands: transcobalamine:cobalamine complexes (TC:B12; Fig. 1; sensorgrams shown at Supplemental Fig. 1a) or lysozyme (Supplemental Fig. 1b), diluted in 0 to 100 mM of the same amino-acids in buffer. […] The supraphysiological range for effective competition in vitro defined the necessary increment in urinary concentration from dietary supplementation for significant competition in vivo.
Figure 1 Acellular assay: direct competition for transcobalamine:cobalamine binding to megalin immobilized on Biacore sensor chips. Signals of sensorgrams (shown in Supplemental Fig. 1) were normalized to control signal without AA supplementation, taken as the unity, and are means ± SEM of at least four independent technical duplicate values at each of the indicated amino-acid-concentrations.
(§2) Surface plasmon resonance (SPR) analysis of the binding to chip-immobilized megalin of receptor-associated protein (RAP), transcobalamine:cobalamine complex (TC:B12) and lysozyme was carried out using a Biacore T200 instrument (Uppsala, Sweden). The sensor chips (type CM5) were activated with a 1:1 mixture of 0.2 M N-ethyl-N′-(3-dimethylaminopropyl) carbodiimide and 0.05 M N-hydroxysuccinimide in H2O. Porcine megalin[49] was immobilized on the chip in 10 mM sodium acetate, pH 4.0, and the remaining binding sites were blocked with 1 M ethanolamine, pH 8.5. The SPR signal generated from immobilized megalin were obtained with a density of 4.5 fmol protein/mm^2.
(§3) Human RAP was produced as recombinant protein in E. coli[50] and used to validate the sensor chip. TC was purified and complexed with B12 as described (TC/B12)[50],[51]. Human recombinant lysozyme was purchased from Sigma-Aldrich (expressed in rice, # L1667). Sensorgrams were generated using each of these three ligands at 10 µg/ml in a running buffer consisting of 10 mM Hepes, 150 mM NaCl, 4 mM CaCl2 and 0.05% Tween 20, pH 7.4. The flow cells were regenerated with 1 M ethanolamine pH 9.0. Analyte testing was performed as a dual injection starting with running buffer supplemented with the defined concentrations of amino acids followed by injection of analyte in the same solution. The pH of all buffers was adjusted after amino acids addition. All binding experiments were made as at least independent triplicate of technical duplicates and data were analyzed using the Biacore T200 evaluation software version 3.1.

The target of data set [2] is T1, porcine megalin. Kind of data set: Surface plasmon resonance: competition for lysozyme binding to chip-immobilized megalin. To be noted: 10 µg/ml lysozyme in 0 to 100 mM amino-acid. As for the experimental part:
as §1, §2, §3

Data set [3] is described as follows: Tolerance of prolonged 5x-dAA diets in mice. The following applies: ad libitum 5x-supplemented solid diet, approx. 45 mmoles/kg/day.
Source text: Ctns knockout mice (C57BL/6 background) were kindly provided by Dr. Corinne Antignac[18]. […] The same increase was set for L- (and D-) lysine.
Data set [4] deals with megalin pathway. The experiment in a line: LMW proteinuria (urinary CC16) in WT mice under 5x-dAA diets. The data set is classed as in vivo. The following applies: WT C57Bl-6 mice, 3 weeks diet, vs control diet. As for the experimental part:
In a second experiment, 5x-D-lysine was compared to regular diet.
(§4) Body weight was recorded before entering the metabolic cages. […] Creatinine clearance was normalized by mouse body weight.

A short description of data set [5]: Clinical urine and serum analyses in Ctns KO mice under 5x-dAA diets. To be noted: Ctns KO mice at 8 months of age, 2 months of treatment, mean ± SEM.
Source text: We also attempted to further discriminate between luminal (competition for surface megalin binding) and intracellular metabolic effects (see Discussion) by comparing the effects of 5x-L-lysine to its stereoisomer, 5x-D-lysine. Unless stated otherwise, diets were initiated at 6 months-of-age, and mice were studied then euthanized at 8 months-of-age (2-months treatment). This time frame was selected for two reasons. First, in the mouse cystinosis model, this an appropriate window to evaluate the impact on PTC alterations based on changes in kidney cystine accumulation and overall function. […] Second, although primary prevention by earlier intervention (from 2-to-6 months-of-age) better mimics perinatal genetic megalin ablation, thus could be more efficient, secondary intervention (starting at 6 months-of-age), when disease becomes clinically apparent, is more relevant for further translational studies.
as §4

The nature of data set [6]: Urinary and serum amino-acid concentration by mass spectrometry in Ctns KO mice. Type of data set: in vivo. The method, then:
as §4
Quantitative analysis of underivatized amino-acids in serum and urine samples was performed using the Amino Acids LC–MS/MS analysis Kit Jasem®. […] Equipment was controlled and data were analyzed using MassHunter Workstation (Agilent Technologies). The assay was validated for selectivity, specificity, linearity and limit of quantification, accuracy and precision, matrix effects and recovery, and stability.

The test system of the next data set is Ctns KO mice kidneys. The experiment in a line: Kidney cystine content in Ctns KO mice. Type of data set: in vivo. To be noted: diet from 6-to-8 months-of-age. As for the experimental part:
For this pilot study, we selected tissue accumulation of cystine as a clear and measurable outcome to quantify long-term interference of dAAs with the endocytic supply of disulfide-rich plasma proteins to kidney PTCs.
(§5) Mice were euthanized by cabon dioxide (CO2) inhalation. Dissected tissues were homogenized in 10 mM N-ethylmaleimide. Protein fraction was obtained after precipitation in 10% 5-sulfosalicylic acid and centrifugation at 20,000g for 20 min at 4 °C. Protein pellet was resuspended in 100 mM NaOH and assayed by the Bio-Rad Protein Assay according to manufacturer’s instructions. Supernatant (50 μl) was mixed with 50 μL of the internal standard solution (Cystine d6) and vortexed for 5 s; then the mixture was extracted with 200 μl of acetonitrile, vortexed for at least 30 s, then centrifuged at 13,000 rpm for 9 min. Liquid chromatography and mass spectrometry analysis was performed by a UHPLC Agilent 1290 Infinity II 6470 (Agilent Technologies) equipped with an ESI-JET-STREAM source operating in the positive ion (ESI +) mode. Equipment was controlled and data were analyzed using MassHunter Workstation (Agilent Technologies). The separation column was InfinityLab Poroshell 120 HILIC 1.9 μm 100 × 2.1 mm (Agilent Technologies). Validation of the method was performed basing on the US Food and Drug Administration (FDA) guideline for industry bioanalytical method validation (FDA 2013) and European Medicines Agency (EMA) guideline (EMA 2011). The assay was validated for selectivity, specificity, linearity and limit of quantification, accuracy and precision, matrix effects and recovery, and stability.

The test system of the next data set is Ctns KO mice liver. Kind of data set: Liver cystine content in Ctns KO mice. The following applies: diet from 6-to-8 months-of-age. Type of data set: in vivo. As for the experimental part:
In the second study to explore the effects of the D-lysine stereoisomer, Ctns KO mice received control vs 5x-D-lysine diet from 6-to-8 months-of-age. Mean kidney cystine value at 8 months-of-age under control diet was 109.4 ± 23.0 nmol hemi-cystine/mg kidney protein, slightly lower than in the first study.
as §5, with “The separation column was InfinityLab Poroshell 120 HILIC 1.9 μm 100 × 2.1 mm (Agilent Technologies). Validation of the method was performed basing on the US Food and Drug Administration (FDA) guideline for industry bioanalytical method validation (FDA 2013) and European Medicines Agency (EMA) guideline (EMA 2011).” left out

Data set [7] relates to megalin pathway. Kind of data set: LMW proteinuria / albuminuria in Ctns KO mice under 5x-dAA diets.
Description: After 24-h adaptation in metabolic cages, urine was collected during the following 24 h in presence of 0.1% sodium azide and 1x-protease inhibitors (Thermo Scientific). When in metabolic cages, mice had free access to tap water and food. Blood was collected 2 days before starting the treatments and entry into metabolic cages (baseline) and at the sacrifice to obtain serum. Body weight was recorded before entering the metabolic cages. Urine and serum analyses were performed by the veterinary laboratory Appialab Srl (Rome, Italy). Urinary levels of CC16 were measured by the Mouse Clara Cell Protein 16 kit 96 T #EKU03200 (Biomatik) according to manufacturer’s instructions. Serum levels of cystatin-C were measured by the Mouse/Rat Cystatin C Quantitative ELISA #MSCTC0 (R&D Systems). […] Creatinine clearance was normalized by mouse body weight.
The mark [8] stands for this setting: read-out: IC50 for TC:B12/megalin interaction (mM; 95%CI).
[9] abbreviates: Ctns KO mice at 8 months of age, 24-h urine, mean ± SEM.
Setting [10] is: Ctns KO mice at 8 months of age, 2 months of treatment, urine, mean ± SEM.
[11] abbreviates: IC50 for TC:B12/megalin interaction (mM; 95%CI).

Read-outs that look alike come from different tables or passages of the source.

T1 sequence (C0HL13 26-4652): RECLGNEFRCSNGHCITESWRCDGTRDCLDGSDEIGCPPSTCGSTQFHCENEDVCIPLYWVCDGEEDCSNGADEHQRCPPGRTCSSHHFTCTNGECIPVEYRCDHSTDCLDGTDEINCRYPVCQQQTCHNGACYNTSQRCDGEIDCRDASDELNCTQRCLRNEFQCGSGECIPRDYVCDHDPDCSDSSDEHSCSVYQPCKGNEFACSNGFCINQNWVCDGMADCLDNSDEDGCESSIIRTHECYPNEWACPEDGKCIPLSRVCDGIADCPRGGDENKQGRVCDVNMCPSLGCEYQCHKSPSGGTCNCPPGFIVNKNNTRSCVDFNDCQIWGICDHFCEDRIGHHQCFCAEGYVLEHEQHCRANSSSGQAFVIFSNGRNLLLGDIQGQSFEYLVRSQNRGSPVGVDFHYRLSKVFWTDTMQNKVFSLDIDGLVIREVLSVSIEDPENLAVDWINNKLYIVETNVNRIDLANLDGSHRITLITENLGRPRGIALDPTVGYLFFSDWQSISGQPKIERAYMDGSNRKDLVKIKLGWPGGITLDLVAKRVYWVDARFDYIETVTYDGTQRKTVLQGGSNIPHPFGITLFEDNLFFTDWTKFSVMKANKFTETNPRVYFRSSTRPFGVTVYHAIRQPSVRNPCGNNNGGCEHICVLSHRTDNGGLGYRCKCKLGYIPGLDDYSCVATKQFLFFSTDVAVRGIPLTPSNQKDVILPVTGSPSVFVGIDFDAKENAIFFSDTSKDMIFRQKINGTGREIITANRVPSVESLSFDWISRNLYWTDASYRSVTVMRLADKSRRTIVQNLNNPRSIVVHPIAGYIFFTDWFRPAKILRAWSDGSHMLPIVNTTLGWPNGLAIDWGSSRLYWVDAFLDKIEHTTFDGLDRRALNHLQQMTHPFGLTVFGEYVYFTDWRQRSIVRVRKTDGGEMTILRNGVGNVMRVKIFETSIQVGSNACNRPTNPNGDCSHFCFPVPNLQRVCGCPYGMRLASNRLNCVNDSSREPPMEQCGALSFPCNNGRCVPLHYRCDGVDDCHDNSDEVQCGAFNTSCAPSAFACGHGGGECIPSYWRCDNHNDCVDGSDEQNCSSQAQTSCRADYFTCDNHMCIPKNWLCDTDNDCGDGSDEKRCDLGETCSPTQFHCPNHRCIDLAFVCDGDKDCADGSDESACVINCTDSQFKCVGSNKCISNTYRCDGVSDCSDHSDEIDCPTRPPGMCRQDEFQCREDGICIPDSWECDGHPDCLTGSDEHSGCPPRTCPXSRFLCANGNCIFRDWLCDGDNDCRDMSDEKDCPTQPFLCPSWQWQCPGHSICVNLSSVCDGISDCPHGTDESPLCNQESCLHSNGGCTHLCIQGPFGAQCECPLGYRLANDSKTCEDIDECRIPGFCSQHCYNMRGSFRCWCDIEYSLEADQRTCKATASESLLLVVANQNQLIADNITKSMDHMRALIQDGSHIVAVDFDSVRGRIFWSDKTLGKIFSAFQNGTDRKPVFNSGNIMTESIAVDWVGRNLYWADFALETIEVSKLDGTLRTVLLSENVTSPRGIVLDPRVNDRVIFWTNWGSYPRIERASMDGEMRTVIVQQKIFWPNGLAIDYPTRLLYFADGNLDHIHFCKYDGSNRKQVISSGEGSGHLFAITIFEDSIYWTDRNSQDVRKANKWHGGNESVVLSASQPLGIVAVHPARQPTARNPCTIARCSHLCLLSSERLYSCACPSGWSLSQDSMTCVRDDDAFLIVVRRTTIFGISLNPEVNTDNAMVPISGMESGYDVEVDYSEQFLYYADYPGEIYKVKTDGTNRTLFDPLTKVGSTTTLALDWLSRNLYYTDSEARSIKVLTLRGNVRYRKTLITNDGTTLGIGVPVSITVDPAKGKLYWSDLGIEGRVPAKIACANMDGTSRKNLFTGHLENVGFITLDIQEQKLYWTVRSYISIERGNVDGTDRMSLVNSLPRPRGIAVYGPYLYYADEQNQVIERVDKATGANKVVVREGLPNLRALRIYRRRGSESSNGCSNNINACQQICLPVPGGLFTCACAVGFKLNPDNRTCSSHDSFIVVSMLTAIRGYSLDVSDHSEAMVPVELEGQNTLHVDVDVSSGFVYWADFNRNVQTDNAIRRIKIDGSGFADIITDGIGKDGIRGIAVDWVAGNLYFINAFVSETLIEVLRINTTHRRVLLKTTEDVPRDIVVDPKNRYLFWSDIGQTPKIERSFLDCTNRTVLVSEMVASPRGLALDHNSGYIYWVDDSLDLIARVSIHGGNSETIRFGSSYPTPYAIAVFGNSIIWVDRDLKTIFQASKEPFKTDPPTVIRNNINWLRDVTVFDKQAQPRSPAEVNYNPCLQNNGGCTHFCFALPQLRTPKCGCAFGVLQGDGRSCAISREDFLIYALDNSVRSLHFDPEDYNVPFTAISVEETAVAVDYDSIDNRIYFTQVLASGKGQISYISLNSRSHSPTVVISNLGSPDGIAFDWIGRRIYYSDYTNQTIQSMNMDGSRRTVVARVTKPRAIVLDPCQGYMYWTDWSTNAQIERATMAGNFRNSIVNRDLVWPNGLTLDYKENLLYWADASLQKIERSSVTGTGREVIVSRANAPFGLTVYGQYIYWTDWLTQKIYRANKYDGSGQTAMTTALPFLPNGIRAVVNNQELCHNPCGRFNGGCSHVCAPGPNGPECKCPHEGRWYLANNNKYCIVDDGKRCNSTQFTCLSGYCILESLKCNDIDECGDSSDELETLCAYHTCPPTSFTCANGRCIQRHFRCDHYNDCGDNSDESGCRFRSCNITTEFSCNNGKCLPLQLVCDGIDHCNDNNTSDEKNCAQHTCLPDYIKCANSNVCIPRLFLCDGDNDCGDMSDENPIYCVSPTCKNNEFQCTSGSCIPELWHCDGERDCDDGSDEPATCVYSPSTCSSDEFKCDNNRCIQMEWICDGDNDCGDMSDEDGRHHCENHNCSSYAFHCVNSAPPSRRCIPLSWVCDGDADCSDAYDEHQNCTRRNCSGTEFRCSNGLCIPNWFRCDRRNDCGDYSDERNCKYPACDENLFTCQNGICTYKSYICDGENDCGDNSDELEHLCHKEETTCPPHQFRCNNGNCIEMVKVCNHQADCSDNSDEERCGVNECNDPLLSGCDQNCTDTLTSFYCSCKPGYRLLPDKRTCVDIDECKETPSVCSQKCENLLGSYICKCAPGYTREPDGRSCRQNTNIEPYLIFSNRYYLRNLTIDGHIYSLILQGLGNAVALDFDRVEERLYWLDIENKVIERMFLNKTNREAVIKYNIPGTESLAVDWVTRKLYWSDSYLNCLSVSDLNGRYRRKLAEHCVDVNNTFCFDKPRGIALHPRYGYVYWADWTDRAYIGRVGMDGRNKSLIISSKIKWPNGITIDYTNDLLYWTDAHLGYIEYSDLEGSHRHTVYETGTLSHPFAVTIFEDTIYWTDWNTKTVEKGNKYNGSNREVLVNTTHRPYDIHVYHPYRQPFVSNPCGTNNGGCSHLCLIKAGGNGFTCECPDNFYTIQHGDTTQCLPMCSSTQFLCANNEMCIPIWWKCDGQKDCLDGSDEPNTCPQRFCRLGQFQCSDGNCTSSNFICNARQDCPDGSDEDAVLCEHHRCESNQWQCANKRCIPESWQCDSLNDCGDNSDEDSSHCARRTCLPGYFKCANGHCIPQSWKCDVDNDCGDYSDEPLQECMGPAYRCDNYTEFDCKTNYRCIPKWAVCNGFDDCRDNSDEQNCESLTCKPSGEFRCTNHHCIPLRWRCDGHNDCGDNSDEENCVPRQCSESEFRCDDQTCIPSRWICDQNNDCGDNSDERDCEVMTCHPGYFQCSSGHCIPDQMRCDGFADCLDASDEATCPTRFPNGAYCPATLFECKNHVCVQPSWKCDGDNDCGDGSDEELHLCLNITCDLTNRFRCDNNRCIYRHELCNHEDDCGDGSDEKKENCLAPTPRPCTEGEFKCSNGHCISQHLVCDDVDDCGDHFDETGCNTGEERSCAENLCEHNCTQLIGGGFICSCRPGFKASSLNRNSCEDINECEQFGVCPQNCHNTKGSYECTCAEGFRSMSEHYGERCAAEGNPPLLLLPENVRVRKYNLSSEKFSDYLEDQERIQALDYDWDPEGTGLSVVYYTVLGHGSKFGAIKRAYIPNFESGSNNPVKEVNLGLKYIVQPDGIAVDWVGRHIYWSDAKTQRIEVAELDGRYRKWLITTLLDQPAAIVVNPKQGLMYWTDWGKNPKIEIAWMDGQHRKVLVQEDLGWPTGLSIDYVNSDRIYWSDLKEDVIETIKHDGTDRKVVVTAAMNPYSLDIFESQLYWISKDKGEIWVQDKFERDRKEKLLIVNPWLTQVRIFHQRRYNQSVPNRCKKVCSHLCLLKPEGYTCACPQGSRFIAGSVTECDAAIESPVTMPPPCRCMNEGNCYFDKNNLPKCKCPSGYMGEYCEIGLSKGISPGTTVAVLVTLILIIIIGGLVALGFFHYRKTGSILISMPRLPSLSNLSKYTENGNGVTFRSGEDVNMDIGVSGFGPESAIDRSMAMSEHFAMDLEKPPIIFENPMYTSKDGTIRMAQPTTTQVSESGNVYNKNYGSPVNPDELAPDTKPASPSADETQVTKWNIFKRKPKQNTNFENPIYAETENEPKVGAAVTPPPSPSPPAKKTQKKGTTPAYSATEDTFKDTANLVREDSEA

For the compound `NC(N)=NCCC[C@@H](N)C(=O)O` [5x-D-arginine, D-arginine], the IC50 at porcine megalin [1] (setting [8]) amounted to 60 mM. For the same compound, on porcine megalin [1], the “SPR signal of amino-acid alone on megalin chip” value (from here on “SPR signal of amino-acid alone”) is given as “no signal was detected”. Besides, the “effect on megalin binding of lysozyme” value on porcine megalin [2] was “concentration-dependent decrease”. The “tolerance of prolonged diet” value in data set [3] is “weight loss and eventual high mortality”.
Take `NCCCC[C@@H](N)C(=O)O` [5x-D-lysine, D-lysine]: the IC50 at porcine megalin [1] (setting [8]) worked out at 22 mM. The “SPR signal of amino-acid alone” value at porcine megalin [1] is on record as “no signal was detected”. Further, the “effect on megalin binding of lysozyme” value at porcine megalin [2] is on record as “concentration-dependent decrease”. The “increase of urinary excretion of CC16 (normalized for creatinine excretion)” value with megalin pathway [4] is 20 fold. The compound also displayed a Body weight in [5] of 22.4 ± 0.3 g. In addition, in data set [5] (serum), the Serum creatinine is given as 0.8 ± 0.1 mg/dL, the “Serum cystatin-C” value is given as 723.3 ± 32.7 ng/mL, the Serum glucose came to 172.4 ± 7.9 mg/dL and the Serum phosphate turned out to be 9.5 ± 0.4 mg/dL. Besides, in [5] (serum), the Serum urea was found to be 43.2 ± 2.0 mg/dL. In addition, in [5] (urine), the Daily creatinine output came out at 0.7 ± 0.1 mg/day, the Diuresis was 5.3 ± 0.8 mL/day, the Urine creatinine was determined as 13.4 ± 1.2 mg/dL and the Urine glucose/creatinine came to 54.4 ± 4.5 g/g. Besides, in [5] (urine), the Urine phosphate/creatinine is 4.8 ± 0.4 g/g and the Urine urea/creatinine is reported as 181.8 ± 11.6 g/g. In data set [6] (setting [9]), this compound registered a Urinary alanine of 1097 ± 106.5 mM/M creatinine, a Urinary arginine of 265 ± 27.5 mM/M creatinine, a Urinary cystine of 481.6 ± 32.8 mM/M creatinine and a Urinary glycine of 1066 ± 162 mM/M creatinine. In addition, the Urinary lysine in [6] (setting [9]) is listed as 123,851 ± 8548 mM/M creatinine. Moreover, the “urinary lysine concentration reached” value in data set [6] (Ctns KO mice, daily urine collections) is ~ 150 mM. In [6] (Ctns KO mice, vs control diet), the increase of argininuria is 12 fold, the increase of cystinuria turned out to be 7 fold and the increase of lysinuria was 2200 fold. In the data set on Ctns KO mice kidneys (Ctns KO female mice), the “mean kidney cystine at 8 months-of-age” value was 44.6 ± 10.8 nmol hemi-cystine/mg kidney protein. For the same compound, the “kidney cystine accumulation during the treatment period” value with Ctns KO mice kidneys (Ctns KO mice) is reported as “probably fully arrested”. The “liver cystine level at 8 months-of-age” value in the data set on Ctns KO mice liver is listed as “did not affect”. The “tolerance of prolonged diet” value in [3] is on record as “strong polyuria but no weight loss”. Besides, in the data set with megalin pathway [7] (Ctns KO female mice, diet from 6-to-8 months of age), the “increase of microalbuminuria vs control diet” value is recorded as “> twofold”. Also, in the data set on megalin pathway [7] (setting [10]), the “Urine CC16/creatinine” value is on record as 18,257 ± 1488 μg/g and the Urine microalbumin/creatinine is reported as 0.5 ± 0.2 (n = 8) mg/g.
On porcine megalin [1] (setting [11]), `N=C(N)NCCC[C@H](N)C(=O)O` [arginine] came in with an IC50 of roughly 60 mM.
Consider `NCC(=O)O` [glycine], for which, at porcine megalin [1], the “SPR signal of amino-acid alone” value is “no signal was detected”. Also, the “effect on megalin:TC:B12 interaction” value on porcine megalin [1] (up to 100 mM) is reported as “No detectable effect”. Also, the “effect on megalin binding of lysozyme” value on porcine megalin [2] was “No detectable effect”.
As to `NCCCC[C@H](N)C(=O)O` [lysine], the IC50 at porcine megalin [1] (setting [11]) is roughly 25 mM.

Source of the values: PMC10570359, “Dietary supplementation of cystinotic mice by lysine inhibits the megalin pathway and decreases kidney cystine content” (Scientific Reports, 2023).
